# Entries after “also recorded” stand apart in the source; their conditions may differ.
# Columns and labels:
# [1] = system: TNF-α secretion in response to bacterial LPS in human monocytes (THP-1); experiment: TNF-α secretion in response to LPS in THP-1 monocytes (ELISA); format: cell-based; conditions: for IC50: Homo sapiens, THP-1, LPS; for activity in TNF-α secretion inhibition compared with comparative Compounds 10-14: FIG. 8
# Procedure: (§1) This assay was performed to analyze the effect of the compounds of the invention on tumor necrosis factor alpha (TNF-α) secretion in response to bacterial lipopolysaccharide (LPS) in human monocytes (THP-1) and on the survival of said THP-1 monocytes in the presence of said compounds.
# (§2) Briefly, cells from human monocytic cell line THP-1 (ATCC) at a density of about 10^6 cells/ml were stimulated with bacterial LPS (Sigma, Ref.# L2654) at a concentration of 1 mg/ml for 4 hours in the presence of the compounds of the invention dissolved in dimethyl sulfoxide (DMSO) at different concentrations (0.001, 0.01, 0.1, 1, 10 and 100 μM). The amount of TNF-α secreted into the medium in response to LPS was quantified by means of an ELISA assay (BioTrak, Ref.# RPN2758, GE-Amersham) following the manufacturer's instructions. Cell viability was quantified by means of flow cytometry FACS (FACScalibur, Becton Dickinson) after staining the treated cells with propidium iodide (1 mg/l) and quantifying the amount of positive cells for this stain (Software Cell Quest Pro).
# These assays were performed to compare the effect of the compounds of the invention (compounds 1, 2 and 3) on tumor necrosis factor alpha (TNF-α) secretion in response to bacterial lipopolysaccharide (LPS) in human monocytes (THP-1) with respect to compounds that are structurally related but have a different substitution pattern in the phenyl ring. Conditions similar to those described in Example 7 were used.
# [2] = biological target: p38 MAPK (Homo sapiens, UniProt Q16539); experiment: Inhibition of MEF2A phosphorylation by p38 MAPK in vitro; format: biochemical; conditions: MEF2A (10 nM) phosphorylation by active recombinant p38 (1 nM), 5 minutes
# p38 MAPK (Homo sapiens, UniProt Q16539), sequence (Q16539 whole entry): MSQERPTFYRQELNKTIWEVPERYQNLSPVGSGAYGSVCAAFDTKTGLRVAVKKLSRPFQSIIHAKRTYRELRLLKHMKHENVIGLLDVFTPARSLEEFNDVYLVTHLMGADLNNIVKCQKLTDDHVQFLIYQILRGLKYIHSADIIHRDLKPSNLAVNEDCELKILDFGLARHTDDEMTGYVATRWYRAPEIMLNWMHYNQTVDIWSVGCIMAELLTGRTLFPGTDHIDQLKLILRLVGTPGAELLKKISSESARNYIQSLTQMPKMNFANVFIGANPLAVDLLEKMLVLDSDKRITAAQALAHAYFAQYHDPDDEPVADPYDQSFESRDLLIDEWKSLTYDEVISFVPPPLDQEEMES
# Procedure: This assay was performed to quantify the effect of the compounds of the invention on MEF2-A phosphorylation by p38 MAPK in vitro.
# To that end, briefly, active recombinant p38 (1 nM) and MEF2A (10 nM) were incubated with different concentrations of Compound 1 in a kinase buffer for 5 minutes. The proteins were resolved using SDS-PAGE and the activity of p38 was measured as phosphorylated MEF2A using anti-P-MEF2A (T312), a specific antibody. The mean of the results is graphically depicted as a percentage with respect to the controls (DMSO) of two independent experiments conducted in duplicate. For comparative purposes, Compound 5 at a concentration of 10 μM was used.
# Finally, the in vitro mean inhibitory concentration (IC50) of this reaction for each assayed compound was determined as the measurement of the efficacy of a compound for inhibiting this biochemical function using a sufficient range of concentrations of each of these compounds (data not shown).
# [3] = system: p38 MAPK; experiment: Activation of p38 MAPK in response to LPS and its activity (P-MK2, P-Hsp27) in THP-1 cells, Western Blot; format: cell-based, human; conditions: THP-1, LPS, 1 and 5 μM, FIG. 2B
# Procedure: This assay was performed to analyze the effect of Compound 1 on the activation of p38 MAPK and on its activity in a human monocytic cell line (THP-1) (American Type Culture Collection: http://www.atcc.org/) treated with different concentrations of said compound.
# Briefly, human monocytic cells from said THP-1 cell line at a density of about 10^6 cells/ml were stimulated with bacterial LPS (Sigma #L2654) at a concentration of between 1 and 10 mg/ml (which may vary depending on the batch) for 1 hour in the absence or presence of Compound 1 at different concentrations (1 μM and 5 μM) dissolved in dimethyl sulfoxide (DMSO). DMSO was used as a control. The cells were lysed in a 100 mM pH 7.5 Tris/HCl buffer, 200 mM EDTA, 1 μM benzamidine, 10 mg/ml STI (soy trypsin inhibitor), 10 mg/ml bacitracin, 80 mU/ml aprotinin, 100 μM phenylmethanesulfonyl fluoride (PMSF) and phosSTOP (Roche, Ref.#04906845001). The samples were subsequently analyzed using Western Blot with specific antibodies. Briefly, the activation of p38 MAPK was analyzed by quantifying by densitometry the amount of p38 MAPK phosphorylated in the activation loop (TGY) by means of Western Blot with anti-phospho-T180-Y182-p38 antibodies (Cell Signaling, Ref.#9211) and by normalizing the values with those obtained for total p38 MAPK levels in each lysate. […]
# [4] = system: THP-1 monocytes; experiment: THP-1 monocyte survival (propidium iodide, FACS); format: cell-based, human; conditions: dose causing the death of 50% of the cells; THP-1, propidium iodide FACS
# Procedure: as §1, §2
# [5] = system: LysM-GRK2^f/+ mice; experiment: Carrageenan-induced hyperalgesia in LysM-GRK2f/+ mice, intrathecal injection; format: in vivo; conditions: for hyperalgesia (paw withdrawal latency to heat): 7 days after carrageenan
# From the text: To perform this assay, a previously described protocol was followed [Willemen H L, et al., Microglial/macrophage GRK2 determines duration of peripheral IL-1beta-induced hyperalgesia: contribution of spinal cord CX3CR1, p38 and IL-1 signaling. Pain. 2010 September; 150(3):550-60; and Eijkelkamp N, et al., (http://www.ncbi.nlm.nih.gov/pubmed/20147541; J. Neurosci. 2010 Feb. 10; 30(6):2138-49). Briefly, eight female LysM-GRK2^f/+ mice (2 mice per group, 4 paws for each condition) were subjected to an intraplantar injection of carrageenan (Sigma-Aldrich, […] of a 1% solution in saline) for inducing inflammatory-type hyperalgesia in the extremities. Seven (7) days after injecting carrageenan, the paw withdrawal latency time when the paw is in contact with heat was determined as an indication of inflammatory-type pain at time 0 (T=0). The carrier (20% DMSO) or Compound 1 at different concentrations (0.15, 0.5 and 1.5 μg in 5 μL of 20% DMSO) was then intrathecally injected.
# The paw withdrawal latency periods were then measured at different times (0.5, 1, 2, 4, 6, 8, 10, 24, 48 and 96 hours after injecting the compound).
# To evaluate the effect of Compound 5 on hyperalgesia induced in mice, a protocol similar to that described for Compound 1 in Example 9A was followed, but in this protocol, the known p38 MAPK inhibitor SB239063 (5 μg in 5 μL of 20% DMSO), the carrier (20% DMSO), or Compound 5 (4 μg in 5 μL of 20% DMSO) was intrathecally injected 7 days after injecting the carrageenan.
# [6] = system: wild-type mice of strain C54BL/6; experiment: Hyperalgesia induced by high doses of carrageenan in wild-type mice, intrathecal injection; format: in vivo; conditions: for analgesic effect: FIG. 11A
# Procedure: The administration of high doses of carrageenan is known to induce hyperalgesia and prolonged inflammation in wild-type mice. Briefly, 16 female wild-type mice of strain C54BL/6 (4 mice per group, 8 paws for each condition) were subjected to intraplantar injection of carrageenan (Sigma-Aldrich, 20 μL of a 2% solution % in saline) for inducing inflammatory-type hyperalgesia in the extremities. Six (6) days after injecting carrageenan, the paw withdrawal latency time when the paw is in contact with heat was determined as an indication of inflammatory-type pain at time 0 (T=0). The known p38 MAPK inhibitor SB239063 [trans-4-[4-(4-fluorophenyl)-5-(2-methoxy-4-pyrimidinyl)-1H-imidazol-1-yl]cyclohexanol] (5 μg in 5 μL of 20% DMSO), the carrier (20% DMSO), or Compound 1 at different concentrations (0.5, 1.0 and 1.5 μg in 5 μL of 20% DMSO) was then intrathecally injected.
# [7] = system: spinal cord astrocytes and neurons; experiment: Toxicity at the intrathecal injection site, Fluoro-Jade B staining, LysM-GRK2f/+ mice; format: in vivo; conditions: two days after the injection, FIG. 10
# Procedure: Furthermore, the possible toxicity of Compound 1 at the injection site (intrathecal) was measured.
# [8] = system: TNF-α; experiment: TNF-α levels in the spinal cord after intrathecal treatment (ELISA); format: in vivo, mice; conditions: FIG. 11D
# Procedure: To find out if TNF-α levels are repressed in vivo after treatment with Compound 1, the spinal cord was isolated two days after intrathecal treatment with said compound and TNF-α levels were analyzed with ELISA.
# [9] = Paw thickness as measurement of ongoing inflammation; format: in vivo, mice; conditions: six days after treatment, FIG. 11E
# [10] = system: peritoneal macrophages of WT and GRK2^+/− mice; experiment: LPS-induced TNF-α secretion in peritoneal macrophages of WT and GRK2+/− mice; format: cell-based; conditions: all doses, FIG. 13
# Procedure: GRK2^+/− peritoneal macrophages were subjected to treatment with LPS and TNF secretion was measured in the presence of increasing doses of Compound 1 as described above. The inhibition observed in GRK2^+/− macrophages was greater than that obtained for WT cells for all doses of Compound 1. The data are means of points in duplicate referring in each case to the secretion obtained in WT macrophages in the presence of Compound 1 at the same dose.
# TNF-α secretion inhibition in peritoneal macrophages of GRK2^+/− mice with Compound 1 was studied. As can be observed in FIG. 13, the greater effect of Compound 1 on GRK2^+/− macrophages may indicate that cells with a lower GRK2 level, as occurs in immune system cells from patients with inflammatory pathologies (Vroon A, Kavelaars A, Limmroth V, Lombardi M S, Goebel M U, Van Dam A M, Caron M G, Schedlowski M, Heijnen C J., J Immunol., 2005, 174(7), 4400-6) are more sensitive to such inhibition.
# [11] = Table 3, comparison with positional isomers
# [12] = doses of 1 and 1.5 μg intrathecal
smiles,measurement,setting,value
"Cc1ccc(Nc2ccc([N+](=O)[O-])c3nonc23)cc1Cl [Compound 7, reference compound]",IC50,[1]; [11],17 ± 1.41 µM
"Cc1ccc(Nc2ccc([N+](=O)[O-])c3nonc23)c(Cl)c1 [Compound 8, reference compound]",IC50,[1]; [11],29 ± 1.41 µM
"Cc1ccc(Cl)cc1Nc1ccc([N+](=O)[O-])c2nonc12 [Compound 1, (5-chloro-2-methyl-phenyl)-(7-nitro-benzo[1,2,5]oxadiazol-4-yl)-amine]",IC50,[2],6.5 µM
same,activation of p38 MAPK (P-p38),[3],decrease in the activation of p38 MAPK
same,phosphorylation of MK2 and Hsp27 substrates,[3],decrease in the phosphorylation
same,IC50,"[1]; Table 2, TNF-α ELISA",1.8 ± 0.006 µM
same,activity in TNF-α secretion inhibition compared with comparative Compounds 10-14,[1]; human monocytes,greater activity
same,TD50 (μM),[4],≈200 μM (n = 2)
same,long-term analgesic effect,"[5]; dose of 0.3 μg intrathecal, FIG. 9B",did not provide any long-term analgesic effect
same,time the reduction of hyperalgesia was maintained after administering,[5]; doses of 0.5 and 1.5 μg intrathecal,≥ 96 h
same,hyperalgesia (paw withdrawal latency to heat),"[5]; doses of 0.5 and 1.5 μg intrathecal, FIG. 9A",almost complete reduction of hyperalgesia
same,lowest effective dose,"[5]; intrathecal, FIG. 9B",0.5 µg
same,analgesic effect,"[6]; dose of 0.5 μg intrathecal, 6 days after carrageenan",temporary effect
same,duration of analgesic effect,[6]; [12],at least 5 days
same,analgesic effect,[6]; [12],long-term analgesic effect
same,"neurotoxicity at the injection site (Fluoro-Jade B, dead or damaged cells)",[7],no signs of neurotoxicity were detected; also recorded: hardly any dead cells
same,TNF-α levels in the spinal cord,"[8]; after intraplantar carrageenan, two days after intrathecal treatment",significantly reduces
same,"TNF-α secretion, compound alone",[8]; without carrageenan,has no effect
same,mouse paw thickness,[9],increased
same,inhibition of TNF secretion in GRK2+/− macrophages compared with WT cells,[10],greater
"COc1ccc(Cl)cc1C(=O)Nc1ccc(Cl)c2nonc12 [Compound 4, 5-chloro-N-(7-chloro-benzo[1,2,5]oxadiazol-4-yl)-2-methoxy-benzamide]",IC50,"[1]; Table 2, TNF-α ELISA",3.2 µM
"Cc1ccc(Cl)cc1Nc1cc(Cl)c2nonc2c1[N+](=O)[O-] [Compound 5, (5-chloro-2-methyl-phenyl)-(7-chloro-4-nitro-benzo[1,2,5]oxadiazol-5-yl)-amine]",IC50,[2],10 µM
same,IC50,"[1]; Table 2, TNF-α ELISA",0.3 µM
same,TD50 (μM),[4],>35 μM (n = 3)
same,time after administering at which the decrease in hyperalgesia can be detected,[5]; 4 μg intrathecal,8 days
same,hyperalgesia (paw withdrawal latency to heat),"[5]; 4 μg intrathecal, FIG. 12",decrease in hyperalgesia
"O=[N+]([O-])c1ccc(Nc2cccc(F)c2F)c2nonc12 [Compound 9, reference compound]",IC50,"[1]; Table 4, comparison with positional isomer",5.25 ± 0.35 µM
same,capacity for reducing TNF-α secretion compared with Compound 3,"[1]; human monocytes, FIG. 7",lower capacity
"Cc1ccc(C)c(Nc2cc(Cl)c3nonc3c2[N+](=O)[O-])c1 [Compound 6, (7-chloro-4-nitro-benzo[1,2,5]oxadiazol-5-yl)-(2,5-dimethyl-phenyl)-amine]",IC50,"[1]; Table 2, TNF-α ELISA",3 µM
"O=[N+]([O-])c1ccc(Nc2cc(Cl)ccc2O)c2nonc12 [Compound 2, 4-chloro-2-(7-nitro-benzo[1,2,5]oxadiazol-4-ylamino)-phenol]",IC50,"[1]; Table 2, TNF-α ELISA",3.2 ± 0.25 µM
same,activity in TNF-α secretion inhibition compared with comparative Compounds 10-14,[1]; human monocytes,greater activity
same,TD50 (μM),[4],>100 μM (n = 2)
"O=[N+]([O-])c1ccc(Nc2cc(F)ccc2F)c2nonc12 [Compound 3, (2,5-difluoro-phenyl)-(7-nitro-benzo[1,2,5]oxadiazol-4-yl)-amine]",IC50,"[1]; Table 2, TNF-α ELISA",2.9 ± 0.41 µM
